Measurements from US20230391760A1, “HETEROCYCLIC GLP-1 AGONISTS” (Gasherbrum Bio, Inc., priority 2020, published 2023).
pEC50: −log10 of the molar value.

Molecular target: GLP-1 Receptor (Homo sapiens, UniProt P43220)
Assay: GLP-1R agonist cAMP stimulation assay (HEK293/GLP1R/CRE-LUC cells, cAMP dynamic 2 Kit)
Format: cell-based
Details: HEK293/CRE-Luc cell line stably expressing the GLP-1 Receptor, 30 min at 37° C.
Procedure: Activation of GLP-1 receptor is known to stimulate cyclic AMP (cAMP) production in cells which indicates primary coupling to the Gαs subunit of the G protein heterotrimeric complex. […] To optimize functional activity directed toward Gαs coupling, a HEK293/CRE-Luc cell line developed by HDB stably expressing the GLP-1 Receptor was used. 200×concentration of compound working solutions were prepared (Agilent Technologies Bravo) with 1/2 log serial dilution in 384-well Echo LDV plate (Labcyte, Cat #LP-0200). 50 nL/well 200× concentration of compound working solutions were moved to 384-well white low volume plate (Greiner,Cat #784075) using Labcyte ECHO550. 1×10^5 cells/mL HEK293/GLP1R/CRE-LUC(HD Biosciences) cell suspensions prepared with assay buffer[DPBS containing 0.5 mM IBMX(Sigma, Cat #15879) and 0.1% BSA (GENVIEW, Cat #FA016-100 g)], 10 uL cell suspensions were added to each well of previous generated assay plate which already contains 50 nl compound at 200×concentration using ThermoFisher Multidrop Combi (1000 cells/well). Seal the plate and incubate at 37° C. with 5% CO2 for 30 min. After incubation the cAMP assay signal was generated using cAMP dynamic 2 Kit (Cisbio). 5 μL cAMP-d2 working solution was added to each well, followed with 5 μL Anti-cAMP antibody-cryptate working solution added to each well using ThermoFisher Multidrop Combi. Incubate at room temperature for 1 hour protected from light.

Sequence of GLP-1 Receptor (P43220 24-463, species assumed): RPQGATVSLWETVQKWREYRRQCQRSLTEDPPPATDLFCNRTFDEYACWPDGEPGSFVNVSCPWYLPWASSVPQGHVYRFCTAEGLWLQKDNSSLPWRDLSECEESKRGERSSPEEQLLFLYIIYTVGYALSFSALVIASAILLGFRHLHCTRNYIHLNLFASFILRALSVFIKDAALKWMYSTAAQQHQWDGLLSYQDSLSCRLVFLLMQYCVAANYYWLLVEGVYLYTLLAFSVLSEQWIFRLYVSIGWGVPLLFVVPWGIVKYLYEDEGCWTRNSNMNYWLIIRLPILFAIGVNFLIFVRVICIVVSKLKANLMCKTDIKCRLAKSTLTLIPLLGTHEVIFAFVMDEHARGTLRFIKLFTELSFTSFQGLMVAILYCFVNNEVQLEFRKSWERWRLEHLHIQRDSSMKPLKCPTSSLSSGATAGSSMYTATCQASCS

Structure (SMILES) | pEC50
CC1(c2ccc(Cl)cc2)Oc2cccc(C3CCN(Cc4nc5cc(-c6noc(=O)[nH]6)ncc5n4C[C@@H]4CCO4)CC3)c2O1 (stereo partly drawn) [Compound 347a, 3-[2-({4-[2-(4-chlorophenyl)-2-methyl-2H-1,3-benzodioxol-4-yl]piperidin-1-yl}methyl)-3-{[(2S)-oxetan-2-yl]methyl}-3H-imidazo[4,5-c]pyridin-6-yl]-4,5-dihydro-1,2,4-oxadiazol-5-one] | 10.66
C[C@H]1CN(c2ccc(F)c(OCc3ccc(Cl)cc3F)c2)CCN1Cc1nc2cc(-c3nnc(C(F)(F)F)[nH]3)nnc2n1C[C@@H]1CCO1 [Compound 518a, (2S)-4-{3-[(4-chloro-2-fluorophenyl)methoxy]-4-fluorophenyl}-2-methyl-1-[(7-{[(2S)-oxetan-2-yl]methyl}-3-[5-(trifluoromethyl)-4H-1,2,4-triazol-3-yl]-7H-imidazo[4,5-c]pyridazin-6-yl)methyl]piperazine] | 9.39
Cc1nc(-c2nnc(C(F)(F)F)[nH]2)cc2nc(CN3CCC(c4cccc5c4O[C@@](C)(c4ccc(Cl)cc4F)O5)CC3)n(C[C@@H]3CCO3)c12 [Compound 302a, 4-[(2S)-2-(4-chloro-2-fluorophenyl)-2-methyl-2H-1,3-benzodioxol-4-yl]-1-[(4-methyl-3-{[(2S)-oxetan-2-yl]methyl}-6-[5-(trifluoromethyl)-4H-1,2,4-triazol-3-yl]-3H-imidazo[4,5-c]pyridin-2-yl)methyl]piperidine] | 9.77
Fc1cc(Cl)ccc1COc1cccc(C2CCN(Cc3nc4cc(-c5ccn[nH]5)ccc4n3C[C@@H]3CCO3)CC2)n1 [Compound 215a, 2-[(4-{6-[(4-chloro-2-fluorophenyl)methoxy]pyridin-2-yl}piperidin-1-yl)methyl]-1-{[(2S)-oxetan-2-yl]methyl}-5-(1H-pyrazol-5-yl)-1H-1,3-benzodiazole] | 8.57
CC(=O)Nc1ccc2c(c1)nc(CN1CCC(c3cccc(OCc4ccc(Cl)cc4F)n3)CC1)n2C[C@@H]1CCO1 [Compound 101a, (S)—N-(2-((4-(6-((4-chloro-2-fluorobenzyl)oxy)pyridin-2-yl)piperidin-1-yl)methyl)-1-(oxetan-2-ylmethyl)-1H-benzo[d]imidazol-5-yl)acetamide] | 8.96
Cc1nnc(-c2ccc3c(c2)nc(CN2CCC(c4cccc5c4OC(C)(c4ccc(Cl)cn4)O5)CC2)n3C[C@@H]2CCO2)[nH]1 (stereo partly drawn) [Compound 271a, 2-({4-[2-(5-chloropyridin-2-yl)-2-methyl-2H-1,3-benzodioxol-4-yl]piperidin-1-yl}methyl)-5-(5-methyl-4H-1,2,4-triazol-3-yl)-1-{[(2S)-oxetan-2-yl]methyl}-1H-1,3-benzodiazole] | 9.47
CC1(c2ccc(Cl)cn2)Oc2cccc(C3CCN(Cc4nc5cc(-c6nnc(C7CC7)[nH]6)cnc5n4C[C@@H]4CCO4)CC3)c2O1 (stereo partly drawn) [Compound 268a, 5-chloro-2-[4-(1-{[6-(5-cyclopropyl-4H-1,2,4-triazol-3-yl)-3-{[(2S)-oxetan-2-yl]methyl}-3H-imidazo[4,5-b]pyridin-2-yl]methyl}piperidin-4-yl)-2-methyl-2H-1,3-benzodioxol-2-yl]pyridine] | 8.38
O=C(O)Cc1ccc2c(c1)nc(CN1CC=C(c3cccc(OCc4ccc(Cl)cc4F)n3)CC1)n2C[C@@H]1CCO1 [Compound 112a, (S)-2-(2-((6-((4-chloro-2-fluorobenzyl)oxy)-3′,6′-dihydro-[2,4′-bipyridin]-1′(2′H)-yl)methyl)-1-(oxetan-2-ylmethyl)-1H-benzo[d]imidazol-5-yl)acetic acid] | 8.20
Cc1nnc(-c2cc3nc(CN4CCC(c5cccc6c5O[C@@](C)(c5ccc(C#N)cc5F)O6)CC4)n(C[C@@H]4CCO4)c3cn2)[nH]1 [Compound 288a, 3-fluoro-4-[(2S)-2-methyl-4-(1-{[6-(5-methyl-4H-1,2,4-triazol-3-yl)-3-{[(2S)-oxetan-2-yl]methyl}-3H-imidazo[4,5-c]pyridin-2-yl]methyl}piperidin-4-yl)-2H-1,3-benzodioxol-2-yl]benzonitrile] | 11.06
CC1(c2ccc(Cl)nc2)Oc2cccc(C3CCN(Cc4nc5cc(-c6nnc(C(F)(F)F)[nH]6)ncc5n4C[C@@H]4CCO4)CC3)c2O1 (stereo partly drawn) [Compound 467a, 2-chloro-5-(2-methyl-4-{1-[(3-{[(2S)-oxetan-2-yl]methyl}-6-[5-(trifluoromethyl)-4H-1,2,4-triazol-3-yl]-3H-imidazo[4,5-c]pyridin-2-yl)methyl]piperidin-4-yl}-2H-1,3-benzodioxol-2-yl)pyridine] | 10.12
CC1(c2ccc(C#N)cc2F)Oc2cccc(C3CCN(Cc4nc5cc(-c6nnc(C7CC7)[nH]6)ccc5n4C[C@@H]4CCO4)CC3)c2O1 (stereo partly drawn) [Compound 277a, 4-[4-(1-{[5-(5-cyclopropyl-4H-1,2,4-triazol-3-yl)-1-{[(2S)-oxetan-2-yl]methyl}-1H-1,3-benzodiazol-2-yl]methyl}piperidin-4-yl)-2-methyl-2H-1,3-benzodioxol-2-yl]-3-fluorobenzonitrile] | 9.82
N#Cc1ccc(COc2cc(C3=CCN(Cc4nc5cc(-c6nnc(C(F)(F)F)[nH]6)ncc5n4C[C@@H]4CCO4)CC3)ccc2F)c(F)c1 [Compound 300a, 3-fluoro-4-[(2-fluoro-5-{1-[(3-{[(2S)-oxetan-2-yl]methyl}-6-[5-(trifluoromethyl)-4H-1,2,4-triazol-3-yl]-3H-imidazo[4,5-c]pyridin-2-yl)methyl]-1,2,3,6-tetrahydropyridin-4-yl}phenoxy)methyl]benzonitrile] | 10.00
FC(F)(F)c1nnc(-c2cc3nc(CN4CCC(c5cccc6c5OC[C@@H](c5ccc(Cl)cc5)O6)CC4)n(C[C@@H]4CCO4)c3cn2)[nH]1 [Compound 423a, 4-[(2R)-2-(4-chlorophenyl)-2,3-dihydro-1,4-benzodioxin-5-yl]-1-[(3-{[(2S)-oxetan-2-yl]methyl}-6-[5-(trifluoromethyl)-4H-1,2,4-triazol-3-yl]-3H-imidazo[4,5-c]pyridin-2-yl)methyl]piperidine] | 9.89
Fc1cc(Cl)ccc1COc1nc(C2CCN(Cc3nc4cc(-c5nnc(C(F)(F)F)[nH]5)ncc4n3C[C@@H]3CCO3)CC2F)ccc1F (stereo partly drawn) [Compound 515a, 2-[(4-chloro-2-fluorophenyl)methoxy]-3-fluoro-6-[(3,4-trans)-3-fluoro-1-[(3-{[(2S)-oxetan-2-yl]methyl}-6-[5-(trifluoromethyl)-4H-1,2,4-triazol-3-yl]-3H-imidazo[4,5-c]pyridin-2-yl)methyl]piperidin-4-yl]pyridine] | 10.24
Cc1nnc(-c2ccc3c(c2)nc(CN2CCC(c4cccc5c4OC(C)(c4ccc(Cl)cc4F)O5)CC2)n3C[C@@H]2CCO2)[nH]1 (stereo partly drawn) [Compound 243a, 2-({4-[2-(4-chloro-2-fluorophenyl)-2-methyl-2H-1,3-benzodioxol-4-yl]piperidin-1-yl}methyl)-5-(5-methyl-4H-1,2,4-triazol-3-yl)-1-{[(2S)-oxetan-2-yl]methyl}-1H-1,3-benzodiazole] | 10.28
O=C1CCCN1c1ccc2c(c1)nc(CN1CCC(c3cccc(OCc4ccc(Cl)cc4F)n3)CC1)n2C[C@@H]1CCO1 [Compound 119a, 1-{2-[(4-{6-[(4-chloro-2-fluorophenyl)methoxy]pyridin-2-yl}piperidin-1-yl)methyl]-1-{[(2S)-oxetan-2-yl]methyl}-1H-1,3-benzodiazol-5-yl}pyrrolidin-2-one] | 8.14
CC1(c2ccc(Cl)cc2)Oc2cccc(C3CCN(Cc4nc5cc(-c6nnc(C(F)(F)F)[nH]6)ccc5n4C[C@@H]4CCO4)CC3)c2O1 (stereo partly drawn) [Compound 226a, 2-({4-[2-(4-chlorophenyl)-2-methyl-2H-1,3-benzodioxol-4-yl]piperidin-1-yl}methyl)-1-{[(2S)-oxetan-2-yl]methyl}-5-[5-(trifluoromethyl)-4H-1,2,4-triazol-3-yl]-1H-1,3-benzodiazole] | 9.89
CC(=O)Nc1ccc2c(c1)nc(CN1CCC(c3cccc4c3OC(C)(c3ccc(Cl)cc3F)O4)CC1)n2C[C@@H]1CCO1 (stereo partly drawn) [Compound 115a, N-(2-((4-(2-(4-chloro-2-fluorophenyl)-2-methylbenzo[d][1,3]dioxol-4-yl)piperidin-1-yl)methyl)-1-((S)-oxetan-2-ylmethyl)-1H-benzo[d]imidazol-5-yl)acetamide] | 8.93
CC(=O)Nc1ccc2c(c1)nc(CN1CC=C(c3cccc(OCc4ccc(Cl)cc4F)n3)CC1)n2C[C@@H]1CCO1 [Compound 135a, N-{2-[(4-{6-[(4-chloro-2-fluorophenyl)methoxy]pyridin-2-yl}-1,2,3,6-tetrahydropyridin-1-yl)methyl]-1-{[(2S)-oxetan-2-yl]methyl}-1H-1,3-benzodiazol-5-yl}acetamide] | 9.19
N#Cc1ccc(COc2nc(C3CCN(Cc4nc5cc(-c6nnc(C(F)(F)F)[nH]6)ncc5n4C[C@@H]4CCO4)CC3)ncc2F)c(F)c1 [Compound 509a, 3-fluoro-4-{[(5-fluoro-2-{1-[(3-{[(2S)-oxetan-2-yl]methyl}-6-[5-(trifluoromethyl)-4H-1,2,4-triazol-3-yl]-3H-imidazo[4,5-c]pyridin-2-yl)methyl]piperidin-4-yl}pyrimidin-4-yl)oxy]methyl}benzonitrile] | 10.13
